The results in this text go back to patent EP4663242A1, “TARGETING THE ENERGY COUPLING FACTOR (ECF) TRANSPORTERS AS NOVEL ANTIMICROBIAL TARGET” (Helmholtz-Zentrum für Infektionsforschung GmbH, priority 2024, dated 2025).

≈ marks a conversion by molar mass, not a printed value. Where “and” joins values, the source holds several entries; their conditions need not be identical. Identical values can stand only once. Like-named read-outs stand apart in the source and are kept apart here.

In one test the test system is ECF-FoIT2. The test can be described thus: Uptake assay into proteoliposome (radiolabelled folate uptake). The format is biochemical, L. delbrueckii. The following applies: folate uptake into proteoliposomes, n = 2, mean ± SD. The method, then: In summary, both 1 and 22 are capable of inhibiting the ECF-FoIT2 in a proteoliposome-based uptake assay which further complements the results obtained from the whole-cell uptake assay. Table 4. Relative inhibition of ECF-FoIT2 in proteoliposome uptake assay
4.3.2. Uptake assay into proteoliposome
This assay was performed based on the protocol reported by Swier et al. with minor modifications.^18

Another test concerns E. faecium DSM-17050. The test can be described thus: MIC screening against Gram-positive pathogens. The class given is cell-based. The following applies: Enterococcus faecium. How it is done:
(§1) 4.3.3. Screening against clinically relevant Gram-positive pathogens.
(§2) All microorganisms were obtained from the German Collection of Microorganisms and Cell Cultures (DSMZ) and were handled according to standard procedures. Bacteria were inoculated into tryptic soy broth (TSB) to obtain a final inoculum of […] colony-forming units (CFU)/mL. The tested compounds were prepared as DMSO stocks (20 mM). Serial dilutions of derivatives in the growth medium (0.06 to 128 µM) were prepared in sterile 96-well plates, and the bacterial suspensions were added. Growth inhibition was assessed after static incubation at 37 °C for 24 h. S. pneumoniae was grown at 5% CO2. MIC values are defined as the lowest compound concentration where no visible growth is observed.

The test system of another test is E. faecium DSM-20478. The test can be described thus: MIC screening against Gram-positive pathogens. The class given is cell-based. The following applies: Enterococcus faecium. The method, then:
as §1, §2

Test [1] has as its system Enterococcus faecalis DSM-20477. In words: MIC screening against Gram-positive pathogens. The class given is cell-based. The method, then: as §1, §2
Another test concerns S. pneumoniae DSM-11865. In words: MIC screening against Gram-positive pathogens. The following applies: Streptococcus pneumoniae. The format is cell-based. How it is done: as §1, §2
Test [2] concerns Streptococcus pneumoniae DSM-20566. The test can be described thus: MIC screening against Gram-positive pathogens. The class given is cell-based. Particulars: 37 °C, 24 h. How it is done: as §1, §2

As to `O=C(O)CCc1nc(-c2ccc(Cl)cc2)c(-c2ccccc2)o1` [Compound 1, 3-(4-(4-Chlorophenyl)-5-phenyloxazol-2-yl)propanoic acid], the “Relative inhibition (%) at 150 µM” value with ECF-FoIT2 is 44% and 44 ± 2%. Besides, the MIC with E. faecium DSM-17050 (DSM17050, 24 h) is more than 128 µM; with E. faecium DSM-20478 (DSM20478, 24 h), more than 128 µM; in test [1] (Enterococcus faecalis, DSM20477, 24 h), more than 128 µM; in the test on S. pneumoniae DSM-11865 (DSM11865, 24 h) it was more than 128 µM.
For the compound `O=C(O)c1cccc(-c2nc(-c3ccc(Cl)c(Cl)c3)c(-c3cccc(C(F)(F)F)c3)o2)c1` [Compound 22, 3-(4-(3,4-Dichlorophenyl)-5-(3-(trifluoromethyl)phenyl)oxazol-2-yl)benzoic acid], the “Relative inhibition (%) at 150 µM” value in the test with ECF-FoIT2 is 95% and 95 ± 1%. In addition, the MIC with E. faecium DSM-17050 (DSM17050, E. faecium DSM-17050, vancomycin-resistant strain, TSB, 37 °C, 24 h, read-out: MIC) is 2 µM (≈ 0.957 µg/mL); with E. faecium DSM-20478 (DSM20478, E. faecium DSM-20478, TSB, 37 °C, 24 h, read-out: MIC) it was 4 µM (≈ 1.91 µg/mL); in test [1] (DSM20477, Enterococcus faecalis DSM-20477, TSB, 37 °C, 24 h, read-out: MIC) it was 4 µM (≈ 1.91 µg/mL); in the test on S. pneumoniae DSM-11865 (DSM11865, S. pneumoniae DSM-11865, penicillin-resistant strain, TSB, 37 °C, 24 h, 5% CO2, read-out: MIC), 0.5 to 1 µM (≈ 0.239 to 0.478 µg/mL); in test [2] (DSM20566, TSB, 5% CO2, read-out: MIC), 0.5 to 1 µM (≈ 0.239 to 0.478 µg/mL); in test [2] (TSB, 5% CO2), 0.5 to 1 µM.
